The test system of the series is naturally occurring senescent cells of aged mice. Briefly: SSK1 treatment of naturally aged mice (senescent cells, SASP, physical function, RNA-seq). It counts as in vivo, C57BL/6 mice. As for the experimental part: All drugs were mixed in 90% PBS, 5% Tween-80 (P1754, Sigma), and 5% polyethylene glycol (PEG) (81172, Sigma) and administered to mice by intraperitoneal (i.p.) injection. For treating bleomycin-injured young mice, SSK1 (0.5 mg/kg) or vehicle were given consecutive two days every week for five weeks. For old mice (20-month-old), SSK1 (0.5 mg/kg), gemcitabine (0.5 mg/kg) or vehicle were administrated for continued 3 days every two weeks. Gemcitabine was purchased from MCE.
Cultured cells were washed once with PBS and fixed in β-galactosidase staining fix solution for 15 min at room temperature. Cells were then washed three times with PBS and incubated with β-galactosidase staining solution (Beyotime Biotechnology) for 16-20 hours at 37° C. For 12-well plates, 1 ml of β-galactosidase staining solution was added to each well. The plate was sealed with Parafilm to prevent evaporation of the staining medium. After the overnight incubation, cells were washed with PBS and observed under a bright field microscope. For β-galactosidase staining of frozen sections, the frozen sections were dried at 37° C. for 20-30 min and then fixed in β-galactosidase staining fix solution for 15 min at room temperature. The frozen sections were washed three times with PBS and incubated with β-galactosidase staining solution overnight at 37° C. After completion of β-galactosidase staining, the sections were stained with eosin for 1-2 min, rinsed under running water for 1 min, differentiated in 1% acid alcohol for 10-20 sec, and washed again under running water for 1 min. Sections were dehydrated in increasing concentrations of alcohols and cleared in xylene. Excess xylene was drained and a coverslip was placed over the section. After drying, the sample was observed under a microscope.
Lung, liver, and kidney frozen sections stained with SA-β-Gal were quantified by ImageJ software (NIH) to measure the SA-β-Gal positive area. The total area was quantified by eosin positive area with ImageJ software (NIH). The relative positive SA-β-Gal positive cells were calculated with the SA-β-Gal positive area divided by the total area. Each mouse was measured with 3-5 regions.
Mouse liver tissues were fixed in 4% paraformaldehyde (DingGuo, AR-0211) for 24 h at room temperature and dehydrated with graded sucrose solution (20% and 30% respectively 24 h) before embedded in OCT compound (Sakura) for cryosection. The embedded tissues were cut and affixed on slides. Before immunohistochemical staining, the sections were fixed in 4% paraformaldehyde (DingGuo, AR-0211) at room temperature for 15 min and blocked with PBS containing 0.25% Triton X-100 (Sigma-Aldrich, T8787) and 2% normal donkey serum (Jackson ImmunoResearch Laboratories, 017-000-121) at room temperature for 1 h. Samples for immunofluorescence staining were incubated with primary antibody: anti-F4/80 antibody (Abcam, ab6640) at 4° C. overnight, washed three times with PBS and then incubated with appropriate secondary antibodies: Alexa Fluor® 488 AffiniPure Donkey Anti-Rat IgG (H+L) (Jackson ImmunoResearch Laboratories, 712-545-150) for 1.5 h at 37° C. Nuclei were stained with Hoechst 33342 (Sigma-Aldrich, B2261).
For quantification of F4/80 positive cells, images were randomly taken at 20× magnification at the same exposure using confocal laser endomicroscopy (LSM 710 NLO &DuoScan System) and then analyzed by ImageJ. Each mouse was measured with at least 6-10 regions.
Total RNA was isolated using the Direct-zol RNA MiniPrep Kit (Zymo Research, R2072). RNA was treated with DNase and converted to cDNA using TransScript First-Strand cDNA Synthesis SuperMix (TransGen Biotech, AT311-03). qPCR was performed using Kapa SYBR® FAST qPCR Kit Master Mix (Kapa Biosystems, KM4101) on a CFX Connect™ Real-Time System or CFX96™ Real-Time System (Bio-Rad). Data were analyzed using the 2^(−ΔΔCt) method. Gapdh was used as a control to normalize the expression of target genes. […]

Setting [1] is: 20-month-old mice, SSK1 0.5 mg/kg i.p. intermittently for 8 weeks.
The mark [2] stands for this setting: aged mice, SSK1 0.5 mg/kg vs vehicle.
Where [3] appears, read: old female mice, 8 weeks, vs vehicle.

`CC(=O)OCC1O[C@@H](Oc2ccc(COC(=O)Nc3ccn([C@@H]4O[C@H](CO)C(O)C4(F)F)c(=O)n3)cc2[N+](=O)[O-])C(OC(C)=O)C(OC(C)=O)[C@H]1OC(C)=O` (stereo partly drawn) [SSK1]: under setting [1], the “Elimination of β-gal-positive senescent cells vs vehicle, kidney” value is reported as 3.5 fold; the “Elimination of β-gal-positive senescent cells vs vehicle, liver” value is on record as 5.9 fold; the “Elimination of β-gal-positive senescent cells vs vehicle, lung” value worked out at 2 fold. For the same compound, the “GO pathways related to liver function (oxidation-reduction process, metabolic process, fatty acid beta-oxidation, mitochondrion)” value (aged livers vs vehicle) is listed as “up-regulated”. Further, the “Genes associated with inflammatory response, TNFα signaling via NF-κB, IL6 JAK Stat3 signaling and complement (GSEA)” value (aged mice livers and kidneys vs vehicle) was “down regulated”. For the setting “aged mice vs vehicle”, the “Age-associated signature (GSEA) in aged livers and kidneys” value is reported as “decreased”; the “Expression of senescent markers p16 (in liver) and p21 (in liver and kidney), RT-qPCR” value is reported as “decreased expression”; the “Inflammatory factors IL1α and IL1β in aged liver and IL6 in aged kidneys, RT-qPCR” value was “decreased”. Besides, where the note is “aged mice, SSK1 0.5 mg/kg”, the “F4/80 positive macrophages infiltration in livers (immunofluorescence)” value was “could delete macrophages infiltration”. For the same compound, under setting [2], the “Gene signature associated with senescence (GSEA), livers and kidneys” value is given as “downregulate”; the “Secretion of SASP factors IL1α, IL6, CXCL1 and TNFα in serum (ELISA)” value is listed as “decreased secretion”. Besides, the “Rotarod, treadmill, and grip strength functions vs other senolytic drugs (fisetin, 17-DMAG, ABT263, dasatinib and quercetin)” value (aged mice, FIG. 4J) was “improved the rotarod, treadmill, and grip strength functions when compared to the other senolytic compounds”. Further, the Body weight result (old female mice, 8 weeks) is given as “without significant effect on body weight”. Moreover, under setting [3], the “Balance beam crossing time” value is listed as “decreased”, the Grip strength entry was “significantly increased”, the Maximal rotarod time entry is on record as “significantly increased” and the Rearing exploration times result is “significantly increased”. The Treadmill distance result under setting [3] was “significantly increased”. For the same compound, the “Rotarod, treadmill, and grip strength performance” value (old male mice, SSK1 0.5 mg/kg vs vehicle) is “same results were also observed”. Under “old mice vs vehicle”, the “Liver fibrosis (Masson fibrosis staining)” value is given as “attenuate liver fibrosis”. In addition, the “Rotarod and treadmill performance after vs before treatment” value (old mice, SSK1 0.5 mg/kg) is “improved over the initial state before treatment”.

(Values after US12576155B2, “Senolytic and antiinflammatory prodrugs and methods of use thereof” (priority 2019, dated 2026).)
